Test results as given in patent US10004716B2, “Therapeutic/ preventive agent containing coumarin derivative as active ingredient” (NIPPON ZOKI PHARMACEUTICAL CO., LTD., priority 2014, dated 2018).

Columns and labels:
NF-κB = assay: Suppressive action to NF-κB activation (luciferase reporter, HEK293T cells, TNF-α); format: cell-based, human; conditions: HEK293T cells with NF-κB reporter; test substance 25 μml/mL 1 hour, then TNF-α 10 ng/mL 5 hours; stimulated TNF-α = 100
Procedure: A preparation solution containing pGL4.32 [luc2P/NF-κB-RE/Hygrol] (Promega) which is an NF-κB reporter vector, pGL4.74 [hRluc/TK] (Promega) which is a control vector and Lipofectamine LTX (Life Technologies) which is a gene transfer agent was added to human embryo kidney cells (HEK293T cells) sown onto a […] whereupon there were prepared the cells which transiently express a reporter protein.
After 24 hours from the gene transfer, transient expression cells were peeled off by treating with trypsin, sown on a poly-lysine coated white 96-well plate and incubated for one night. The test substance was added to as to make its final concentration 25 μml/mL and, after pre-incubating for 1 hour, TNF-α was added thereto so as to make its final concentration 10 ng/mL followed by incubating for 5 hours more. The cells were dissolved and the activities of a firefly luciferase and a renilla luciferase were measured. Rate of the luminescent intensity by addition of each drug to the luminescent intensity by stimulation with TNF-α were calculated.

TGF-β1 gene expression = assay: Evaluation II: TGF-β-induced gene expression of fibrosis-related factors in NHLF cells: TGF-β1; format: cell-based, human; conditions: 30 μM test substance, 200 μg/mL pirfenidone, 30 μM DEX, 1.0 μM TPCA-1 or 10 μM FP 2 hours, then TGF-β 0.5 ng/mL 4 hours, n = 4
Procedure: (§1) NHLF cells were sown so as to make their amount 5×10^4 cells/well to each well of a 12-well plate and incubated to an extent of 80% confluent in a medium where fibroblast growth medium 2 supplement mix (FGM-2 SingleQuots, Lonza) was added to a fibroblast basal medium (FBM, Lonza). After that, incubation was conducted for 2 hours in a DMEM medium containing 30 μM of a test substance, 200 μg/mL of pirfenidone, 30 μM of dexamethasone (DEX), 1.0 μM of TPCA-1 or 10 μM of fluticasone propionate (FP) and, after TGF-β was added thereto so as to make its final concentration 0.5 ng/mL, incubation was carried out for 4 hours more.
(§2) With regard to the extraction of RNA from NHLF cells, the synthesis of cDNA from RNA and the action of the test substance to gene expression of fibrosis-related factors [CFGF, TGF-β1, fibronectin and Col 1], the tests were carried out in the same manners as in (2) and (3) of the above Test Example 3.

CTGF gene expression = assay: Evaluation II: TGF-β-induced gene expression of fibrosis-related factors in NHLF cells: CTGF; format: cell-based, human; conditions: 30 μM test substance, 200 μg/mL pirfenidone, 30 μM DEX, 1.0 μM TPCA-1 or 10 μM FP 2 hours, then TGF-β 0.5 ng/mL 4 hours, n = 4
Procedure: as §1, §2

Col 1 gene expression = assay: Evaluation II: TGF-β-induced gene expression of fibrosis-related factors in NHLF cells: Col 1; format: cell-based, human; conditions: 30 μM test substance, 200 μg/mL pirfenidone, 30 μM DEX, 1.0 μM TPCA-1 or 10 μM FP 2 hours, then TGF-β 0.5 ng/mL 4 hours, n = 4
Procedure: as §1, §2

[1] = tested on: fibronectin gene expression; assay: Evaluation II: TGF-β-induced gene expression of fibrosis-related factors in NHLF cells: fibronectin; format: cell-based, human; conditions: 30 μM test substance, 200 μg/mL pirfenidone, 30 μM DEX, 1.0 μM TPCA-1 or 10 μM FP 2 hours, then TGF-β 0.5 ng/mL 4 hours, n = 4
Procedure: as §1, §2

[2] = tested on: mice where pulmonary fibrosis was induced by bleomycin; assay: Lung wet weight increase of mice where pulmonary fibrosis was induced by bleomycin; format: in vivo; conditions: ICR male mice, bleomycin 2 mg/kg i.v. 5 days; test substance 50 mg/kg or pirfenidone 200 mg/kg per os twice daily for 2 weeks; normal control 205, diseased control 303
Procedure: Bleomycin (2 mg/kg) was repeatedly injected intravenously for 5 days to ICR male mice. The mice were organized into 4 groups of normal control group, diseased control group, test substance-administered group and pirfenidone-administered group.
A test substance was suspended in 0.5 w/v % carboxymethyl cellulose sodium (CMC) and 50 mg/kg thereof was repeatedly administered per os with stirring twice daily for 2 weeks using an oral sonde for rats. Pirfenidone was suspended in 0.5 w/v % CMC and 200 mg/kg thereof was repeatedly administered per os with stirring twice daily for 2 weeks using an oral sonde for rats. To the normal control group and the diseased control group, 0.5 w/v % CMC was repeatedly administered per os according to the same administration schedule. After finishing the administration period, both lungs were excised from the mice and their wet weight was measured.

Structure (SMILES) | Luminescent Intensity to Stimulated TNF-α (%) (NF-κB) | Copy Numbers per 10000 Copies of GAPDH TGF-β1 (TGF-β1 gene expression) | Copy Numbers per 10000 Copies of GAPDH CTGF (CTGF gene expression) | Copy Numbers per 10000 Copies of GAPDH Col 1 (Col 1 gene expression) | Copy Numbers per 10000 Copies of GAPDH Fibronectin [1] | Wet Lung Weight [2] [mg]
O=c1oc2c(OS(=O)(=O)c3cccc([N+](=O)[O-])c3)cccc2cc1NS(=O)(=O)c1cccc([N+](=O)[O-])c1 [Compound 17, 3-[(3-Nitrophenyl)sulfonylamino]-2-oxochromen-8-yl 3-nitrobenzenesulfonate] | 0.1 |  |  |  |  | 
CCC(=O)O[C@]1(C(=O)SCF)[C@H](C)C[C@H]2[C@@H]3C[C@H](F)C4=CC(=O)C=C[C@]4(C)[C@@]3(F)[C@@H](O)C[C@@]21C [FP, fluticasone propionate] |  | 450.6 copies per 10000 copies of GAP | 1166.8 copies per 10000 copies of GAP | 593.3 copies per 10000 copies of GAP | 3603.2 copies per 10000 copies of GAP | 
C[C@@H]1C[C@H]2[C@@H]3CCC4=CC(=O)C=C[C@]4(C)[C@@]3(F)[C@@H](O)C[C@]2(C)[C@@]1(O)C(=O)CO [DEX, dexamethasone] |  | 546.9 copies per 10000 copies of GAP | 1010.1 copies per 10000 copies of GAP | 610.7 copies per 10000 copies of GAP | 4314.6 copies per 10000 copies of GAP | 
NC(=O)Nc1sc(-c2ccc(F)cc2)cc1C(N)=O [TPCA-1] |  | 886.9 copies per 10000 copies of GAP | 461.2 copies per 10000 copies of GAP | 840.4 copies per 10000 copies of GAP | 3757.9 copies per 10000 copies of GAP | 
Cc1ccc(=O)n(-c2ccccc2)c1 [Pirfenidone] |  | 962.5 copies per 10000 copies of GAP | 180.6 copies per 10000 copies of GAP | 1027.6 copies per 10000 copies of GAP | 1689.7 copies per 10000 copies of GAP | 242
